Laboratory results taken from patent US20170355743A1, “INSULIN RECEPTOR PARTIAL AGONISTS” (Merck Sharp & Dohme Corp., priority 2014, published 2017).

Tested on: C57BL/6NTac mice
Experiment: Intraperitoneal Insulin Tolerance Test (IP-ITT)
Type: in vivo
Details: intraperitoneal injection, two doses per compound (Table 16), lean male C57BL/6NTac mice, 30 to 360 minutes after dose
Method: Groups of N=6-8 animals per group were randomized by weight (average about 30 grams). Two days prior to study, the mice were conditioned to dosing with an intraperitoneal injection of 0.9% Sodium Chloride solution at 5 ml/kg dosing volume. On the morning of the study, food was removed two or four hours prior to the study. Blood glucose concentrations were determined at T=0 min (baseline) using a Glucometer. […] Blood glucose levels were determined from tail bleeds taken between 30 to 360 minutes after dose.

B29,B29′-suberoyl-(insulin)2 [Compound B, reference compound]
blood glucose profile at low versus high dose: increased glucose lowering potency
